Data: BindingDB's records for doi:10.1016/j.chembiol.2007.10.011 (Vanderbilt University, 2007)
Where “and” joins values, the source holds several entries; their conditions need not be identical. Equal values may be shown once.

Legend:
[1] = molecular target: Lanosterol 14-alpha-demethylase (Trypanosoma brucei brucei (strain 927/4 GUTat10.1), UniProt Q385E8); test: Inhibition Assay; conditions: pH 6
[2] = molecular target: Sterol 14-alpha demethylase (Trypanosoma cruzi (strain CL Brener), UniProt Q7Z1V1); test: Inhibition Assay; conditions: pH 6
Chain of Sterol 14-alpha demethylase (Q7Z1V1 whole entry): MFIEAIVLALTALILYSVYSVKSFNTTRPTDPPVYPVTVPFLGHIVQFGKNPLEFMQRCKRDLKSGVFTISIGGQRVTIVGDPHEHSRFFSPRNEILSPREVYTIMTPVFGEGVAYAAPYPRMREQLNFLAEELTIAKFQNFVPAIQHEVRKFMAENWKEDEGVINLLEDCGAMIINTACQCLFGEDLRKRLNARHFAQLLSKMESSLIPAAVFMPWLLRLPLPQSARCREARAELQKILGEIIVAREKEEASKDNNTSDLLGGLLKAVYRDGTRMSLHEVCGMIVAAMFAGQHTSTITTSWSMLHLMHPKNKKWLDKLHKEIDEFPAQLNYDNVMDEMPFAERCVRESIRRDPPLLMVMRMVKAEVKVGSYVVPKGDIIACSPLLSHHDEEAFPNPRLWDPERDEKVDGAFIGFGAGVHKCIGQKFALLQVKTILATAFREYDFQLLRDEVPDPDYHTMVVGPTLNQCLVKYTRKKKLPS

Chain of Lanosterol 14-alpha-demethylase (Q385E8 whole entry): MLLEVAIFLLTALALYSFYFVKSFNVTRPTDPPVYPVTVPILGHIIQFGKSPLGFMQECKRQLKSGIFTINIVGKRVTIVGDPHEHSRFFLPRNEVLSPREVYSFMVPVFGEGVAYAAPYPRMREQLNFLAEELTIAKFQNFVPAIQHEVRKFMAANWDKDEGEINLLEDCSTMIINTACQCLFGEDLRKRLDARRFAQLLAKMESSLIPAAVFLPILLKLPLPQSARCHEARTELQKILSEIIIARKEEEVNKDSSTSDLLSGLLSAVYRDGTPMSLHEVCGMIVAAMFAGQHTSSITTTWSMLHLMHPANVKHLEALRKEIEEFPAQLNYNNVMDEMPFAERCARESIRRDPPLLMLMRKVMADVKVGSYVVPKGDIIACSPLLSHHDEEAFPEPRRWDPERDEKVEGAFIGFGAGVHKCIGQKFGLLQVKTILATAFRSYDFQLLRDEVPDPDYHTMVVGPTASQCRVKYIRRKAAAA

| SMILES | Kd [1] | Kd [2] |
| --- | --- | --- |
| CC(=O)N1CCN(c2ccc(OC[C@H]3CO[C@](Cn4ccnc4)(c4ccc(Cl)cc4Cl)O3)cc2)CC1 [24F2-1,25(OH)D3] | 2300 nM | – |
| O=C(NCC(c1ccc(Cl)cc1)(c1ccc(Cl)cc1)n1ccnc1)c1ccccc1 [Azole, 1] | 1010 nM | 320 nM |
| O=C(NC(Cn1ccnc1)c1ccc(Cl)cc1Cl)c1nnc(-c2ccccc2)o1 (centres undefined) [Azole, 2] | 90 nM and 100 nM | – |
| O=C(NC(Cn1ccnc1)c1ccc(Cl)cc1Cl)c1nnc(-c2ccccc2)o1 (centres undefined) [Azole, 3] | 140 nM | 140 nM |
| O=C(NC(Cn1ccnc1)c1ccccc1)c1ccc(-c2ccc(Cl)cc2)cc1 (centres undefined) [Azole, 4] | 50 nM | 70 nM |
| O=C(NCC(c1ccccc1)n1ccnc1)c1cnc[nH]1 (centres undefined) [Azole, 5] | 1900 nM | 1200 nM |
| O=C(NCC(c1ccccc1)n1ccnc1)c1cccc2c1oc1ccccc12 (centres undefined) [Azole, 6] | 210 nM | 130 nM |
| O=C(NCC(c1ccccc1)n1ccnc1)c1ccc2sc3ccccc3c(=O)c2c1 (centres undefined) [Azole, 7] | 310 nM | 380 nM |
| O=C(NCC(c1ccccc1)n1ccnc1)c1csc(-c2ccc(Cl)cc2)c1 (centres undefined) [Azole, 8] | 210 nM | 110 nM |
| COc1cccc(Sc2ccc(C(=O)NCC(c3ccccc3)n3ccnc3)cc2)c1 (centres undefined) [Azole, 9] | 70 nM | 90 nM |
| O=C(NCC(c1ccccc1)n1ccnc1)c1cccc(Sc2ccccc2)c1 (centres undefined) [Azole, 10] | 50 nM | 50 nM |
| COc1ccc(CC(CNC(=O)c2ccc(-c3ccc(Cl)cc3)cc2)n2ccnc2)cc1 (centres undefined) [Azole, 11] | 710 nM | 110 nM |
| O=C(NCC(c1ccccc1)n1ccnc1)c1ccc(-c2ccc(Cl)cc2)cc1 (centres undefined) [Azole, 12] | 40 nM | 70 nM |
| CCCCOc1ccc(-c2ccc(C(=O)NC(Cn3ccnc3)c3ccc(Cl)cn3)cc2)cc1 (centres undefined) [Azole, 17] | 80 nM | 110 nM |
| O=C(NC(Cn1ccnc1)c1ccc(Cl)cn1)c1ccc(-c2ccc(Cl)cc2)cc1 (centres undefined) [Azole, 19] | 90 nM | 60 nM |
| O=C(NC(Cn1ccnc1)c1ccc(Cl)cn1)c1ccc(-c2ccc(Cl)cc2)cc1 (centres undefined) [Azole, 20] | – | 70 nM |
